# Data reported in patent US20030217372A1, “Methods of using alpha 1b-adrenergic receptors” (priority 2002, published 2003).
# Counter-ions that a name gives are not always drawn.
# Tests used:
# WT and α1b-AR KO mice [1] = test: Locomotor activity in circular corridor after acute drug injection; assay type: in vivo; details: for amplitude of locomotor response, α1b-AR KO vs WT mice: D-amphetamine 2 and 3 mg/kg, cocaine and morphine independent of dose
# Procedure: FIG. 2 is a series of dose response graphs that depicts the results of locomotor response to novelty, saline, scopolamine and chloro-APB experiments in WT and α1b-AR KO mice. […] Animals were placed in the experimental apparatus for 90 minutes, received a saline injection and were replaced in the apparatus for 60 minutes. On the following day, animals were placed in the experimental apparatus for 90 minutes, they received an intraperitoneal injection of either saline or scopolamine (1 mg/kg) and their locomotor response was measured every 5 minutes for 60 minutes. FIG. 2D represents the results of locomotor response to chloro-APB; animals were placed in the experimental apparatus for 90 minutes, received a saline injection and were replaced in the apparatus for 60 minutes. On the following days, animals were placed in the experimental apparatus for 90 minutes, they received an intraperitoneal injection of chioro-APB and their locomotor response was measured every 5 minutes for 60 minutes. Several doses of chloro-APB were tested on consecutive days in a random order.
# Independent groups of animals were used for each treatment to avoid eventual behavioral sensitization (N=6-16 per group).
# (§1) Mice were introduced in a circular corridor (4.5 cm width, 17 cm external diameter) crossed by four infrared beams (1.5 cm above the base) placed at every 90° (Imetronic, Pessac, France). The locomotor activity was counted when animals interrupted two successive beams and, thus, had traveled ¼ of the circular corridor. In each session, the spontaneous activity was recorded for 90 minutes, before mice received either saline or drugs. Their activity was recorded for an additional 60 minutes or 120 minutes period. The first session was a session of habituation to the experimental procedure during which animals received saline (˜3 ml/kg, i.p.). The locomotor response to a drug administration was measured on the following day. Tests were performed between 12:00 and 6:00 p.m. in stable conditions of temperature and humidity.
# WT and α1b-AR KO mice [2] = test: Locomotor sensitization induced by repeated drug administration; assay type: in vivo
# Procedure: Animals spent 90 minutes in the experimental apparatus, received a saline injection and were replaced in the apparatus for 60 minutes. […] Four similar sessions took place every other day. The sixth session took place after a 10-day withdrawal. Locomotor responses measured during the first hour following each injection are presented in function of the number of injections and slope values. N=6 to 15 animals per group.
# N=6 to 12 animals per group. […] FIG. 6B represents the time course of the locomotor responses measured every 5 minutes.
# as §1
# Data were analyzed with Student's t-test or analysis of variance. For behavioral sensitization experiments, correlation between the number of drug injections and the amplitude of the locomotor responses was analyzed with linear regression and the influence of genotype on this correlation with an analysis of covariance. Genotype and prazosin treatments were between-subjects factors. […] Differences were considered significant when p<0.05.
# The rate of sensitization was evaluated by determining the slope of the “number of injections/response” curve (FIG. 5).
# WT and α1b-AR KO mice [3] = test: Oral consumption, two-bottle choice paradigm; assay type: in vivo; details: cocaine 0.2 mg/ml, morphine 0.15 mg/ml
# Procedure: Fluid intake was measured daily by weighting bottles, mice being housed individually. Tested solutions were replaced twice weekly.
# Cocaine and morphine: For two weeks, bottles were filled with cocaine or morphine solution of decreasing concentration (one dose per week; 0.3 mg/ml then 0.2 mg/ml for cocaine and 0.2 mg/ml and 0.15 mg/ml for morphine) instead of water, so that mice accustom to the bitter taste. […] Then, to determine mean water consumption and eliminate basal side preference, two bottles of water were given for three days to each animal and basal consumption was calculated as the mean consumption from one bottle on day 2 and the other on day 3. Preference for cocaine (0.2 mg/ml) or morphine (0.15 mg/ml) was then measured over two 12-day sessions, drug and water sides being exchanged between the 2 sessions. Means of drug and water consumptions were estimated for the last 5 days of both 12-day periods.
# Rewarding properties of cocaine and morphine were assessed in a two-bottle choice paradigm adapted from the method described by Ferraro et al. (Ferraro et al., Pharmacol. Biochem. Behav. 66:397-401, 2000) for cocaine and Borg and Taylor (Borg et al., Biochem. Behav. 47:633-46, 1994) for morphine.
# WT and α1b-AR KO mice [4] = test: Morphine-induced conditioned place preference (Y maze); assay type: in vivo; details: for conditioned place preference (CPP): morphine 5 mg/kg s.c.; for locomotor activity during conditioning sessions, morphine vs saline: repeated morphine 5 mg/kg s.c.
# Procedure: FIG. 8 is a series of histograms and dose response graphs that represents the results of a conditioned place preference experiment induced by morphine in WT and α1b-AR KO mice. WT and α1b-AR KO mice were conditioned to receive morphine (5 mg/kg s.c.) in a compartment and a saline injection in the other compartment. The saline group received saline injections in both compartments. N=6 to 11 animals per group. The upper left graph show the time spent in the morphine-associated compartment before conditioning (pre-test), after four morphine injections and four saline injections (post-test 1) and after two supplementary morphine and two supplementary saline injections (post-test 2). *p<0.05 and **p<0.01 when time spent in the drug compartment was different between pretest and post-test 1 or 2 (paired Student's t-test). The upper right graph show scores that correspond to the time spent in the morphine compartment during the post-test (1 and 2) minus time spent in the morphine compartment during the pre-test. p<0.05 when scores were higher for morphine treated mice than for saline treated mice (unpaired Student's t-test). The lower left and lower right graphs show the locomotor activity measured during the 30 minutes of each of the 12 conditioning sessions corresponding either to morphine or to saline injection. ***p<0.001 locomotor activity measured during the morphine session was higher than during the corresponding saline session (paired Student's t-test).
# Conditioned place preference was measured in a Y maze. Mice were habituated to the experimental apparatus (Imetronic, Pessac, France) for 3 days (1 hour of exploration of the maze with neutral cues, i.e. smooth gray walls and floor). On the following day, animals were allowed to freely explore the two compartments (with different visual and tactile cues) of the maze for 20 minutes corresponding to a pre-conditioning test. The total amount of time spent in each compartment was recorded and analyzed as previously described (Valverde et al., Psychopharmacology (Berlin) 123:119-26, 1996). For the next […] corresponding to the conditioning session, mice alternatively received morphine (5 mg/kg; s.c.) in one compartment and saline in the other compartment the following day. According to the unbiased method, morphine was equally associated to both compartments and was given either first or second, mice being confined in one compartment for the 30 minutes following each injection. One day after the end of the conditioning session, mice were submitted to a post-conditioning test identical to the test performed before conditioning, i.e. each mice being allowed to explore both compartments for 20 minutes. […] Locomotor activities were recorded with electronic cells in each conditioning session.
# α1b-ARs = target: T1, α1b-ARs (Mus musculus, UniProt P97717); test: Prazosin effect on locomotor responses to D-amphetamine, cocaine and morphine; assay type: in vivo, mice; details: prazosin 1 mg/kg i.p. pre-treatment
# T1 construct: endogenous in cells; host or cells: living adult male WT mice (129/Sv x C57BL/6J mixed background), in vivo; α1b-AR KO mice as comparison
# T1 sequence (P97717 1-514): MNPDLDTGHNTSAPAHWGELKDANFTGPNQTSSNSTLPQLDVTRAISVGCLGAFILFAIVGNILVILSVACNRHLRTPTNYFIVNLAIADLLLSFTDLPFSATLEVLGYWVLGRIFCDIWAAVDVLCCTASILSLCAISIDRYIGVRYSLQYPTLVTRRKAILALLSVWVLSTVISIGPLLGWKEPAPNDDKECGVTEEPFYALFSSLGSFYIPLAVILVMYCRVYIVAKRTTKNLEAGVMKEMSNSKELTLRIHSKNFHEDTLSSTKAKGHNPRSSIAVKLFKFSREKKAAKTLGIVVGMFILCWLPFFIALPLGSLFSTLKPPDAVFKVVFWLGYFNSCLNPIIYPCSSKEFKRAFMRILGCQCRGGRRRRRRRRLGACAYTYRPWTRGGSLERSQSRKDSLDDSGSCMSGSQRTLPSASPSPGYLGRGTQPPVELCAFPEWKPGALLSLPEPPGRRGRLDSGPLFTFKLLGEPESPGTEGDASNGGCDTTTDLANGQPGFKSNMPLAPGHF
# Procedure: Animals were placed in the experimental apparatus for 150 minutes, received two saline injections after 60 minutes and 90 minutes spent in the corridor. On the following day, animals were placed in the experimental apparatus for 60 minutes, they received an intrapenitoneal injection of either saline or prazosin (1 mg/kg) and were replaced in the corridor for 30 minutes. […] Independent groups of animals were used for each treatment to avoid eventual behavioral sensitization (N=6-12 per group).
# as §1, with “In each session, the spontaneous activity was recorded for 90 minutes, before mice received either saline or drugs.” left out
# α1-adrenergic receptors = details: cited from earlier work
# [5] = α1b-AR KO mice, i.p., different doses
smiles,measurement,setting,value
"Br.C=CCN1CCc2c(cc(O)c(O)c2Cl)C(c2ccccc2)C1 (stereo not shown) [chloro-APB, chloro-APB hydrobromide]",locomotor activity,"WT and α1b-AR KO mice [1]; WT mice, chloro-APB i.p., several doses",dose-dependently increase locomotor activity
same,"amplitudes of locomotor responses, WT vs α1b-AR KO mice","WT and α1b-AR KO mice [1]; chloro-APB i.p., several doses",No significant differences
"COC(=O)[C@H]1[C@@H](OC(=O)c2ccccc2)C[C@@H]2CC[C@H]1N2C.Cl [cocaine, cocaine hydrochloride]","amplitude of locomotor response, α1b-AR KO vs WT mice",WT and α1b-AR KO mice [1],significantly altered by the genotype
same,locomotor activity,"WT and α1b-AR KO mice [1]; WT mice, i.p., different doses",dose-dependent stimulation of locomotor activity
same,locomotor activity,WT and α1b-AR KO mice [1]; [5],also increased locomotor activity
same,locomotor responses of drug-treated vs naive mice,"WT and α1b-AR KO mice [2]; KO mice, cocaine 5 mg/kg, 5 previous drug injections",no significant difference
same,rate of sensitization: slope of the number of injections/response curve,"WT and α1b-AR KO mice [2]; WT mice, cocaine 5 mg/kg",101.0±47.4
same,rate of sensitization: slope of the number of injections/response curve,"WT and α1b-AR KO mice [2]; WT mice, cocaine 15 mg/kg",198.2±48.19
same,rate of sensitization: slope of the number of injections/response curve,"WT and α1b-AR KO mice [2]; α1b-AR KO mice, cocaine 5 mg/kg",−0.155±20.96
same,rate of sensitization: slope of the number of injections/response curve,"WT and α1b-AR KO mice [2]; α1b-AR KO mice, cocaine 15 mg/kg",102.8±19.37
same,drug consumption vs water in two-bottle choice (rewarding properties),WT and α1b-AR KO mice [3]; KO mice,aversion
same,drug consumption vs water in two-bottle choice (rewarding properties),WT and α1b-AR KO mice [3]; WT mice,exhibited a preference
"CN1CC[C@]23c4c5ccc(O)c4O[C@H]2[C@@H](O)C=C[C@H]3[C@H]1C5 [morphine, morphine chiorhydrate]","amplitude of locomotor response, α1b-AR KO vs WT mice",WT and α1b-AR KO mice [1],significantly altered by the genotype
same,stereotyped walking behavior,WT and α1b-AR KO mice [1]; KO mice,induced a stereotyped walking behavior
same,locomotor activity,"WT and α1b-AR KO mice [1]; WT mice, i.p., different doses",dose-dependent stimulation of locomotor activity
same,locomotor activity,WT and α1b-AR KO mice [1]; [5],also increased locomotor activity
same,rate of sensitization: slope of the number of injections/response curve,"WT and α1b-AR KO mice [2]; WT mice, morphine 7.5 mg/kg",146.7±51.4
same,rate of sensitization: slope of the number of injections/response curve,"WT and α1b-AR KO mice [2]; α1b-AR KO mice, morphine 7.5 mg/kg",38.17±19.48
same,drug consumption vs water in two-bottle choice (rewarding properties),WT and α1b-AR KO mice [3]; KO mice,aversion
same,conditioned place preference (CPP),WT and α1b-AR KO mice [4]; KO mice,not in KO mice
same,"locomotor activity during conditioning sessions, morphine vs saline",WT and α1b-AR KO mice [4]; KO mice,no significant difference
same,conditioned place preference (CPP),WT and α1b-AR KO mice [4]; WT mice,significant CPP was induced
same,"locomotor activity during conditioning sessions, morphine vs saline",WT and α1b-AR KO mice [4]; WT mice,induce a behavioral sensitization in WT
COc1cc2nc(N3CCN(C(=O)c4ccco4)CC3)nc(N)c2cc1OC [prazosin],effect on locomotor response to D-amphetamine,"α1b-ARs; WT mice, D-amphetamine 3 mg/kg",significantly reduced
same,effect on locomotor response to cocaine,"α1b-ARs; WT mice, cocaine 20 mg/kg",significantly reduced
same,effect on locomotor response to morphine,"α1b-ARs; WT mice, morphine 10 mg/kg",significantly reduced
same,"effect on locomotor responses to D-amphetamine, cocaine and morphine",α1b-ARs; α1b-AR KO mice,failed to modify
same,behavioral sensitization with prazosin co-administered with repeated cocaine or D-amphetamine injections,α1-adrenergic receptors; background statement,no behavioral sensitization is observed
same,"locomotor hyperactivity induced by D-amphetamine, cocaine, GBR12783 and morphine",α1-adrenergic receptors; background statement,completely inhibits
same,D-amphetamine-induced locomotor hyperactivity and extracellular DA responses in the nucleus accumbens,"α1-adrenergic receptors; rats, Darracq et al. 1998",inhibits D-amphetamine-induced locomotor hyperactivity without modifying extracellular DA responses
"CN1[C@@H]2C[C@@H](OC(=O)[C@H](CO)c3ccccc3)C[C@H]1[C@@H]1O[C@@H]12 [scopolamine, scopolamine hydrobromide]","stimulatory effect on locomotor activity, WT vs α1b-AR KO mice","WT and α1b-AR KO mice [1]; scopolamine 1 mg/kg i.p., 60 minutes",equivalent
